Measurements: US6440417B1, “Antibodies to argatroban derivatives and their use in therapeutic and diagnostic treatments” (ConjuChem, Inc., priority 1998, dated 2002)

Tests used:
plasma proteins = test: Western blot of plasma proteins derivatized in vitro with argatroban derivatives; settings: human and rat whole blood, 100 μM, 30 minutes; bands from less than 39.5 kDa to greater than 193 kDa
Method: (§1) Whole blood samples were treated with argatroban derivatives to yield plasma proteins and red blood cells derivatized with argatroban. Fresh citrated human, rabbit (New Zealand) and rat (Sprague Dawley) whole blood samples were incubated with 100 μM (final concentration) Argatroban-C6-NHS, Argatroban-C16-Maleimide or DMSO, for 30 minutes at room temperature under gentle agitation. After quenching the reaction with 1 mM lysine or cysteine, the whole blood was centrifuged 10 min at 2500 rpm. Labelled plasma were recovered and stored at −20° C. until use. Labelled red blood cells (RBCs) were washed three times in PBS (5 min at 2500 rpm).
Labeled plasma were diluted 1/10 in water. Five μl of diluted plasma (·30 μg protein) were mixed with electrophoresis buffer and separated by SDS-PAGE using an 8% polyacrylamide gel, under non-reducing conditions. Plasma proteins were then transferred onto nitrocellulose sheet with a semi-dry transfer apparatus. Efficacy of transfer was checked by reversible staining with 1% Ponceau Red. The blot was saturated with tris-buffered saline (TBS) containing 5% gelatin and 0.1% Tween 20, for 2H at 37° C. to minimize non-specific binding. After three washes with TBS-1 % Tween 20 (TBS-T), the blot was incubated with rabbit anti-argatroban polyclonal serum from diluted 1/20,000 in TBS containing 1% gelatin and 0.1% Tween 20 (TBS-GT), for 1H30 at RT. […]

red blood cells = test: Flow cytometry of red blood cells derivatized in vitro with argatroban derivatives; format: cell-based, human, rabbit, rat; settings: RBCs from whole blood incubated with 100 μM derivative, each sample
Method: as §1
After the last centrifugation, a 10% suspension of labelled red blood cells (RBCS) was made in PBS. Five μl of the suspension was mixed with rabbit anti-argatroban polyclonal sera from Example 4 diluted 1/500 in PBS-1% BSA and incubated at room temperature for 1 hour. After three washes in PBS, the RBCs were incubated with 50 μl of FITC-labeled goat anti-rabbit Ig (BioAtlantic, Nantes) diluted 1/50 in PBS-1% BSA for 1 hour in the dark. After three washes, the RBCs were resuspended in 0.5 ml PBS and fluorescence was detected by flow cytofluorometer (Becton Dickinson).

rat plasma proteins = test: Western blot of plasma from rats dosed in vivo; settings: intravenous, 5 minutes and 24 hours after dosing
Method: Fifteen Sprague-Dawley rats weighing 250-300 grams were randomized for treatment with either argatroban and argatroban derivative. Rats treated with argatroban received dosages of either 3 or 10 mg/kg (n=6 and respectively) administered intravenously. […] A control group of rats was treated with intravenous injection of DMSO (0.2 ml/kg, n=3). The study was divided into two groups. Plasma samples were obtained from group 1 rats at time periods of 5 min, 15 min, and 24 hrs after injection. Plasma samples were obtained from group 2 rats at 1 hr, 3 hr and 24 hr following injection. […] The collected plasma samples from these rats were frozen for subsequent evaluation of the extent of conjugation to plasma proteins using ELISA and western blot analysis.
Plasma samples obtained from the rats were diluted 1:50 in PBS and then further diluted 1:1 with 2× Laemmli non-reducing buffer (Novex). The samples were boiled for 5 min. after which 25 ul of each sample were loaded per well of 8% acrylamide SDS-PAGE precast gel (10 lanes/1 mm gel, Novex). Samples were run in replicates for staining with Coomassie blue and for transfer to nitrocellulose.
Gels were run at a constant voltage of 120 V until the dye fronts reached the bottom of gels. […]

Compound	protein bands identified in derivatized plasma samples (plasma proteins)	mean fluorescence signal relative to argatroban-maleimide derivatized cells (red blood cells)	plasma protein labelling / association with anti-argatroban antisera (rat plasma proteins)
CC1CNc2c(cccc2S(=O)(=O)N[C@@H](CCCN=C(N)N)C(=O)N2CC[C@@H](C)C[C@@H]2C(=O)NCCCCCC(=O)ON2C(=O)CCC2=O)C1.Cl.Cl (stereo partly drawn) [argatroban-NHS]	Numerous protein bands	3 to 7 times	–
CC1CNc2c(cccc2S(=O)(=O)N[C@@H](CCCNC(=N)N)C(=O)N2CC[C@@H](C)C[C@@H]2C(=O)O)C1 (stereo partly drawn) [argatroban]	–	–	minimal protein association
